According to article PMC5452050 (ACS Omega, 2017):

Tests used:
EPHB6 = EPHB6 (Homo sapiens, UniProt O15197); test: Kd determination; format: binding
[1] = target: TYK2 (JH1 domain-catalytic) (Homo sapiens, UniProt P29597); test: Kd determination; format: binding
TYK2 (JH1 domain-catalytic), sequence (P29597 897-1176 limits assumed): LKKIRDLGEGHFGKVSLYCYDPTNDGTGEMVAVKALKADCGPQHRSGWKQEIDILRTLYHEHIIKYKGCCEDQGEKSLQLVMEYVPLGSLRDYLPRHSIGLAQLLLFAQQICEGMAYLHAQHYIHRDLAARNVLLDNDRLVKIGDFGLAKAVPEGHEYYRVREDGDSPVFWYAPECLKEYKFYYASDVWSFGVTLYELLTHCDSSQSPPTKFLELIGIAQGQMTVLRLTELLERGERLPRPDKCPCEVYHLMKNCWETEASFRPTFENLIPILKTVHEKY

EPHB6, sequence (O15197 32-1021): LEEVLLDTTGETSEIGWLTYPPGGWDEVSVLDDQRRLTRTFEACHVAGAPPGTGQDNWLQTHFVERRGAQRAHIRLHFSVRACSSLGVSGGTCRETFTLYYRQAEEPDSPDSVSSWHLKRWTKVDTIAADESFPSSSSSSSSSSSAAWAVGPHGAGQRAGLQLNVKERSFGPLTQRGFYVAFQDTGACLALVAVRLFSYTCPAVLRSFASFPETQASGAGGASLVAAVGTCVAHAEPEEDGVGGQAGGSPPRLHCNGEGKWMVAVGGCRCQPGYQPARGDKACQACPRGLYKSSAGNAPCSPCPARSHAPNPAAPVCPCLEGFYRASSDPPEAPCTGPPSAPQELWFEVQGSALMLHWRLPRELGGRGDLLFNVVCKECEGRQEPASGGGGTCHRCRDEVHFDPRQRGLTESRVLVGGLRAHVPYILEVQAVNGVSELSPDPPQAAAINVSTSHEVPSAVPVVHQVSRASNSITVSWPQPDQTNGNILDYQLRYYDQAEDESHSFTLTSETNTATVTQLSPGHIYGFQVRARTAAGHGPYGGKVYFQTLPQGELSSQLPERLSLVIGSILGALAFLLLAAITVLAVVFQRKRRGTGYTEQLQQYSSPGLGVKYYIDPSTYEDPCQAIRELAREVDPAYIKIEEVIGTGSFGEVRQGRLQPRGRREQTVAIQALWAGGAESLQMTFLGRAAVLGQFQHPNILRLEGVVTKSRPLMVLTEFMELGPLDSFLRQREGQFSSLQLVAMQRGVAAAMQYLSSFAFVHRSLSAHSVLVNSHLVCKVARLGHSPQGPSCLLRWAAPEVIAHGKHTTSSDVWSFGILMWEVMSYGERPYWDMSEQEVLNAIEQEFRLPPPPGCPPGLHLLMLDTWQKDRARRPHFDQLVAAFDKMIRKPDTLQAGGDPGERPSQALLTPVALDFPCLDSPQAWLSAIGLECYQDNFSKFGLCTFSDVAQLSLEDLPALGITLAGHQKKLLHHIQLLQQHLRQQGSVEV

Work on CC(C)Nc1ccnc(Nc2cccc(-c3cccnc3)c2)n1 [Compound 5e, N^4-Isopropyl-N^2-(3-(pyridin-3-yl)phenyl)pyrimidine-2,4-diamine] yielded a Kd (EPHB6) of 440 nM and a Kd [1] of 740 nM.
